# Assay results from ChEMBL document CHEMBL1201862, “PubChem BioAssay data set” (2004).
# Calls of active or inactive are those of the source.
# Legend:
# [1] = target: Kallikrein-7 (Homo sapiens, UniProt P49862); experiment: Fluorescence Intensity-based biochemical primary high throughput dose response assay to identify activators of kallikrein-7 (K7) zymogen.
# [2] = target: Nuclear receptor subfamily 0 group B member 1 (Homo sapiens, UniProt P51843); type: functional, cell-based;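 note: HEK293T cells transfected with SF-1 and DAX-1 plus StAR promoter luciferase reporter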
# Chain of Nuclear receptor subfamily 0 group B member 1 (P51843 whole entry): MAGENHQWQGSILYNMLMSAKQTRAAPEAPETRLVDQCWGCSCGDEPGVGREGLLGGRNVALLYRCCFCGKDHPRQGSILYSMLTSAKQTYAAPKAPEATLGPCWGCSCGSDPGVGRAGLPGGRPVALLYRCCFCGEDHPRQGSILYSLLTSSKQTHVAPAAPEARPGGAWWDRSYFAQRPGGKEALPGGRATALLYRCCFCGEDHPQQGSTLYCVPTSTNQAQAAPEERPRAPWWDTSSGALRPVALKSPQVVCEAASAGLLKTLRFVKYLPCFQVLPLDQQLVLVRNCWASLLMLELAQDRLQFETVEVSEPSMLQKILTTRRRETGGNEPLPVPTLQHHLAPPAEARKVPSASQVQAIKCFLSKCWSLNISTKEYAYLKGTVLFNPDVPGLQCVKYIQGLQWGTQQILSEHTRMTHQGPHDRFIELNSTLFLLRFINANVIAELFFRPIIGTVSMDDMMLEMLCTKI
# [3] = cells; type: functional, cell-based
# [4] = cells; type: functional, cell-based; remark: listed apart in the source
# [5] = cells; type: functional, cell-based; remark: listed apart in the source
# [6] = target: Beta-lactamase (Salmonella choleraesuis (strain SC-B67), UniProt Q5J463); experiment: Epi-absorbance-based counterscreen for selective VIM-2 inhibitors: dose response biochemical high throughput screening assay to identify inhibitors of TEM-1 serine-beta-lactamase.
# Chain of Beta-lactamase (Salmonella choleraesuis (strain SC-B67), UniProt Q5J463) (Q5J463 whole entry): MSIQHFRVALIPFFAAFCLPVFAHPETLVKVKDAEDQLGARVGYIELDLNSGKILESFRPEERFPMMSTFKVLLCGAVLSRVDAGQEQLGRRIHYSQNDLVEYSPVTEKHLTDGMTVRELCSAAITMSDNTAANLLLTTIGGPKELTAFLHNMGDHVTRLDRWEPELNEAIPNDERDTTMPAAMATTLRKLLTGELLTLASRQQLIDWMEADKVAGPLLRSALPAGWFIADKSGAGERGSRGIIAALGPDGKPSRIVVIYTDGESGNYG
# [7] = target: T1, Beta-lactamase (Pseudomonas aeruginosa, UniProt Q79MP6); experiment: IMP-1 metallo-beta-lactamase inhibitors, dose response, selectivity assay for VIM-2 inhibitor project, biochemical, epi-absorbance (AID 1920)
# T1 sequence (Q79MP6 whole entry): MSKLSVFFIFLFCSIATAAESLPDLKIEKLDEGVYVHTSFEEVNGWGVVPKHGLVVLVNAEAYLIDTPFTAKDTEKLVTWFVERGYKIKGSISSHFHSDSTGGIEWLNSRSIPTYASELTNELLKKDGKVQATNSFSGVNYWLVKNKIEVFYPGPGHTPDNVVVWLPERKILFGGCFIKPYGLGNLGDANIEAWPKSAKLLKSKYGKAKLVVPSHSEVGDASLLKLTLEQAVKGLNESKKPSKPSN
# [8] = target: T1, Beta-lactamase; experiment: […] counterscreen for selective VIM-2 inhibitors: dose response biochemical high throughput screening assay to identify inhibitors of IMP-1 metallo-beta-lactamase.
# [9] = Luminescence Cell-Based Dose Confirmation HTS to Identify Inhibitors of Platelet Dense Granule Release. [Related pubchem assays: 1663 (Primary HTS), 1678 (Summary of Project)]; type: functional
# [10] = target: Luciferin 4-monooxygenase (Photinus pyralis, UniProt P08659); experiment: firefly luciferase enzyme inhibitors, dose response, biochemical, luminescence (AID 1891)
# [11] = cells; type: functional, cell-based; conditions: HEK-CNG
# [12] = target: Galanin receptor type 3 (Homo sapiens, UniProt O60755); experiment: Fluorescence-based cell-based primary high throughput dose response assay to identify antagonists of the Galanin Receptor 3 (GalR3).; type: functional
# [13] = cells
# [14] = target: T2, Beta-2 adrenergic receptor (Homo sapiens, UniProt P07550); experiment: Dose response for HTS for Beta-2AR agonists via FAP method from Powderset3.; type: functional
# T2 sequence (P07550 whole entry): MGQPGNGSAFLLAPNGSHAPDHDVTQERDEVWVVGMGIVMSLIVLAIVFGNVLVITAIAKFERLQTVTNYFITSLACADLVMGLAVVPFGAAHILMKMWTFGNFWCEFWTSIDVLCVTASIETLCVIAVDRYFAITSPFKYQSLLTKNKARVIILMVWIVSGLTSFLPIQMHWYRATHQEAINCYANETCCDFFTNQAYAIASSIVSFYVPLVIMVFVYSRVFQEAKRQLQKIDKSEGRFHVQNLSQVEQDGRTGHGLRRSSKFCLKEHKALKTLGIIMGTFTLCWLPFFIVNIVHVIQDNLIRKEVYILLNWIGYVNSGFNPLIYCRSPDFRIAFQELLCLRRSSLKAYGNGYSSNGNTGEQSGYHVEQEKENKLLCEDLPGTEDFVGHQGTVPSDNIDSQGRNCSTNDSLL
# [15] = target: T2, Beta-2 adrenergic receptor; experiment: beta2AR agonists driving receptor internalization, dose response, cell-based, FAP fluorogen, flow cytometry, cherry pick 1 (AID 588763); type: functional
# [16] = test system: H9c2; experiment: cells; type: functional, cell-based; conditions: Rattus norvegicus, H9c2, Myocardium;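 note: confirmatory concentration-response retest of ultra-high-throughput screening hits for modulation of myocardial damage; cell death induced by hydrogen peroxide oxidative stress; compound pretreatment for 60 min then peroxide exposure for 2 h; potency is for protecting the cells against peroxide damage rather than for killing them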
# [17] = target: T3, Trace amine-associated receptor 1 (Homo sapiens, UniProt Q96RJ0); experiment: Counterscreen for antagonists of the human trace amine associated receptor 1 (hTAAR1): Fluorescence-based cell-based high throughput dose response assay to identify TAAR1 Agonists.; type: functional
# T3 sequence (Q96RJ0 whole entry): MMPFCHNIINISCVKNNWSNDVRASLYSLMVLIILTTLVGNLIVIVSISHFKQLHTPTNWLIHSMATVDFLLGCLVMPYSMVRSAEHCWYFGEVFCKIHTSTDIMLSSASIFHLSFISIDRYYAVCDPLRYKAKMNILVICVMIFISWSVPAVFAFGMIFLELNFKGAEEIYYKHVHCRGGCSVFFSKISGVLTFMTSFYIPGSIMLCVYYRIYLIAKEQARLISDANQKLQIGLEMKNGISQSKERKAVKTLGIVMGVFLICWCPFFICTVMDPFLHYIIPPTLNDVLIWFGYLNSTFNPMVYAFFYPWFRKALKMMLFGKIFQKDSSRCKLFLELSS
# [18] = Counterscreen for […] of the human trace amine associated receptor 1 (TAAR1): Fluorescence-based cell-based high throughput dose response assay to identify nonselective Ga16 agonists.; type: functional
# [19] = Counterscreen for antagonists of the human trace amine associated receptor 1 (hTAAR1): Fluorescence-based cell-based high throughput dose response assay to identify nonselective Ga16 antagonists.; type: functional
# [20] = target: T3, Trace amine-associated receptor 1; experiment: Fluorescence-based cell-based high throughput dose response assay to identify antagonists of the human trace amine associated receptor 1 (TAAR1).; type: functional
# [21] = target: Beta-galactosidase (Escherichia coli, UniProt Q8VNN2); experiment: Dose response counterscreen for EBI2 assay utilizing the enzyme, b-galactosidase.; type: functional
# [22] = target: T4, Oxysterols receptor LXR-beta (Homo sapiens, UniProt P55055); type: functional, cell-based;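 note: agonist activity at LXR measured by a cell-based luminescence readout across a dose range, run as a counterscreen for daf-12 agonists; HEK293 cells with Gal4-LXR fusion and GAL4-driven luciferase reporter; potency for activation of Gal4-LXR reporter so compounds are agonists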
# T4 sequence (P55055 whole entry): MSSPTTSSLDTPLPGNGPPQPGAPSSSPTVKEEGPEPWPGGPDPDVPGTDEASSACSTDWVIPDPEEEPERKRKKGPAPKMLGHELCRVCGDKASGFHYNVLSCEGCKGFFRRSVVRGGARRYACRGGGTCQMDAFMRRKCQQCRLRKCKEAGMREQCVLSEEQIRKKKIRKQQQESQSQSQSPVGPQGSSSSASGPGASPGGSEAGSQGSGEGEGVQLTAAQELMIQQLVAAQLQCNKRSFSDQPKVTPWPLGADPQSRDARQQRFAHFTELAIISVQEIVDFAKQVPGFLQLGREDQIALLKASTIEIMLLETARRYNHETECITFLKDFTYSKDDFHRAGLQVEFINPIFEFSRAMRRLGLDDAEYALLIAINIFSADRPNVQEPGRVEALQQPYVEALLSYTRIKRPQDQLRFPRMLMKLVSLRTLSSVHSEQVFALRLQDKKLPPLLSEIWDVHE
# [23] = target: 1-phosphatidylinositol 4,5-bisphosphate phosphodiesterase gamma-1 (Homo sapiens, UniProt P19174); experiment: Counterscreen for inhibitors of phospholipase C isozymes (PLC-B3): Fluorescence-based biochemical high throughput dose response assay to identify inhibitors of phospholipase C isozymes (PLC-gamma1).
# Chain of 1-phosphatidylinositol 4,5-bisphosphate phosphodiesterase gamma-1 (P19174 whole entry): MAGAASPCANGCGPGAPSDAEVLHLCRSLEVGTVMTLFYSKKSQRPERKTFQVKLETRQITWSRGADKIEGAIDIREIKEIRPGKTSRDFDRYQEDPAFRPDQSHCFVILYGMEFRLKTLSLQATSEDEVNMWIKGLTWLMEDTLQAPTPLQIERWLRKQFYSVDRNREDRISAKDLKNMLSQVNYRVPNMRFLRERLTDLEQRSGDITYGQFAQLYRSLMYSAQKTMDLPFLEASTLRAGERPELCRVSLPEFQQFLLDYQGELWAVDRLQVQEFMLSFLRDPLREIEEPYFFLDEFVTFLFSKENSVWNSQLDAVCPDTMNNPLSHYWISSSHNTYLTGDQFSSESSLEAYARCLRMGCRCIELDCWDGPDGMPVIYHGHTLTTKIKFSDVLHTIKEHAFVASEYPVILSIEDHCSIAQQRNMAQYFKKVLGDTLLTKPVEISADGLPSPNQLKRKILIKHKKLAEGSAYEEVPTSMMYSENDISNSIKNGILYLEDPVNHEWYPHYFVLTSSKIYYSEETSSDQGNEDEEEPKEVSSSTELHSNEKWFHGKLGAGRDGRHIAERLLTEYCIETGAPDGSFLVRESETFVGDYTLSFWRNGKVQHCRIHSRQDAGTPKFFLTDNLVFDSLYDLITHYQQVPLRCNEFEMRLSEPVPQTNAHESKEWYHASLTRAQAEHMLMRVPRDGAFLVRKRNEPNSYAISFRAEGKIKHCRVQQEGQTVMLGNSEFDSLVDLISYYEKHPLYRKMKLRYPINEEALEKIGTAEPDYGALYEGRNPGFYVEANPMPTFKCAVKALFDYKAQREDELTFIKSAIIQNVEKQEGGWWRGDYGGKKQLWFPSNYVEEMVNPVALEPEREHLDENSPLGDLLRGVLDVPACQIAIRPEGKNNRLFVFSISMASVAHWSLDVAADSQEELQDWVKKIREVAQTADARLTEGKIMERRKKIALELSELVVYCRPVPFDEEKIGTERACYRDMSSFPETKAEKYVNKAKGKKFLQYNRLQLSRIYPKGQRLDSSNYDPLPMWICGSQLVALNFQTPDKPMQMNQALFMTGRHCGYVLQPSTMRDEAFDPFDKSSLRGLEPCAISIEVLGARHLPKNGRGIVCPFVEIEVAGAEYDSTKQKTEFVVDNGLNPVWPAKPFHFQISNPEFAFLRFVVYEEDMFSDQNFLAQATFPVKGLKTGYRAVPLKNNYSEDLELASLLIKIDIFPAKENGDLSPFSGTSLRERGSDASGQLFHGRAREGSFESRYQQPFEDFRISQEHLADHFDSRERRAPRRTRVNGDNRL
# [24] = target: 1-phosphatidylinositol 4,5-bisphosphate phosphodiesterase beta-3 (Homo sapiens, UniProt Q01970); experiment: Fluorescence-based biochemical high throughput dose response assay to identify inhibitors of phospholipase C isozymes (PLC-B3).
# Chain of 1-phosphatidylinositol 4,5-bisphosphate phosphodiesterase beta-3 (Q01970 whole entry): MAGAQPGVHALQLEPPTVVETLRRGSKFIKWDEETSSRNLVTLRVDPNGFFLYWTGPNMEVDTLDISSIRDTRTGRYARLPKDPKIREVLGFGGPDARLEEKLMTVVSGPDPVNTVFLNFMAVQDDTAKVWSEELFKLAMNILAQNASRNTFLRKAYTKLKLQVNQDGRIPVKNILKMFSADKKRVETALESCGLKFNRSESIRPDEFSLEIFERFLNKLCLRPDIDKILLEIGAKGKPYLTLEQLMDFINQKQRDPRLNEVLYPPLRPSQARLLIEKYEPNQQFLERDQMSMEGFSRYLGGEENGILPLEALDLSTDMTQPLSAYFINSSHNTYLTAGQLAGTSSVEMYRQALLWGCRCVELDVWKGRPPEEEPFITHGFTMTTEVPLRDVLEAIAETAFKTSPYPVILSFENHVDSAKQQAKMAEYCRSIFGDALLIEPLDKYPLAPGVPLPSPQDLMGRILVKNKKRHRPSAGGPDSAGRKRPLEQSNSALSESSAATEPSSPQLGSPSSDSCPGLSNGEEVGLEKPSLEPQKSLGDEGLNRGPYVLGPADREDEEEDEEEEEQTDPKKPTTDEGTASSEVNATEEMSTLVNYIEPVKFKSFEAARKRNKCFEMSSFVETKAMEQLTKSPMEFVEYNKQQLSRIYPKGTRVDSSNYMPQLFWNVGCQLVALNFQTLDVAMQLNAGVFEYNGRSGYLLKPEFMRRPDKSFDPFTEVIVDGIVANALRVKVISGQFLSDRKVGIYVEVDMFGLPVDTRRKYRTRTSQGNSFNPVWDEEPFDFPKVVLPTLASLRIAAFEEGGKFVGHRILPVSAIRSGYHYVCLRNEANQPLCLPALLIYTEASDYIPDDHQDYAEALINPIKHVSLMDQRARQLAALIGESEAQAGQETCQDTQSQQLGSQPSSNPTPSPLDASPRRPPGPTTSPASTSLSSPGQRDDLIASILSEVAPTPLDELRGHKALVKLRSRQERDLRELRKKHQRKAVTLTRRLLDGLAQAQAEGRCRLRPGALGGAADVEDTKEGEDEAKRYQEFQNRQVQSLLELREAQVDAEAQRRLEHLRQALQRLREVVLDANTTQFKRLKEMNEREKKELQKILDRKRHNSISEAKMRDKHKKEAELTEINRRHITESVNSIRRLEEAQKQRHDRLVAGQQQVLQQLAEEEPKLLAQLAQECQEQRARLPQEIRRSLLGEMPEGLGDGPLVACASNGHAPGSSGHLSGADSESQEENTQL
# [25] = target: T5, Protein skinhead-1 (Caenorhabditis elegans, UniProt P34707); type: functional
# T5 sequence (P34707 whole entry): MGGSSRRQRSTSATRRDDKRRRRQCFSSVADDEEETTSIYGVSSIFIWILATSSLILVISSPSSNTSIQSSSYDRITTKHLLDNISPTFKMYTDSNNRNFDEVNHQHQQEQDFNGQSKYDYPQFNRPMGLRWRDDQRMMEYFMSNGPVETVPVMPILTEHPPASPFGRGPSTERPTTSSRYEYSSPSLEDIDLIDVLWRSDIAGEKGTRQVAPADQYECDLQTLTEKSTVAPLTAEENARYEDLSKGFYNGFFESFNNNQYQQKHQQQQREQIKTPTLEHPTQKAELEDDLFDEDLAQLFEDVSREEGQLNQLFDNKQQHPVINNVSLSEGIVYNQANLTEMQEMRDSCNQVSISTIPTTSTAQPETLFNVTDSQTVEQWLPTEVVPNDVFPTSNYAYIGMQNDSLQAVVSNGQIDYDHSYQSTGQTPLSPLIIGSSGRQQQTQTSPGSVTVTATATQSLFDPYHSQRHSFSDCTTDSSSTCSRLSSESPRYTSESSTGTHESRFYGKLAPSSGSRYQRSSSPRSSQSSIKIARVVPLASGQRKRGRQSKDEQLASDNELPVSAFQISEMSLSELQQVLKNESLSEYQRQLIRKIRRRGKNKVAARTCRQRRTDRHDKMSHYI
# [26] = cells; conditions: HEK293
# [27] = target: T2, Beta-2 adrenergic receptor; experiment: Dose response for HTS for Beta-2AR agonists via FAP method from Powderset2.; type: functional
# [28] = test system: Vero; experiment: Vero cell toxicity, dose response, cytotoxicity control, plate reader, cherry-pick samples (AID 687020); type: functional, cell-based; conditions: Chlorocebus sabaeus
# [29] = A2780 ovarian cancer cell cytotoxicity, dose response, cytotoxicity control, plate reader, dry powder samples (AID 743046); type: functional, cell-based
# [30] = NIH:OVCAR-3 ovarian cancer cell cytotoxicity, dose response, PAX8 inhibitor project, plate reader, dry powder samples (AID 743044); type: functional, cell-based
# [31] = target: Paired box protein Pax-8 (Homo sapiens, UniProt Q06710); experiment: inhibitors of PAX8-driven TPO luciferase reporter, dose response, RMG-I cells, cherry-pick (AID 687027); type: functional, cell-based;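 note: luciferase reporter driven by Pax8 target thyroperoxidase promoter measured by SteadyGlo luminescence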
# Chain of Paired box protein Pax-8 (Q06710 whole entry): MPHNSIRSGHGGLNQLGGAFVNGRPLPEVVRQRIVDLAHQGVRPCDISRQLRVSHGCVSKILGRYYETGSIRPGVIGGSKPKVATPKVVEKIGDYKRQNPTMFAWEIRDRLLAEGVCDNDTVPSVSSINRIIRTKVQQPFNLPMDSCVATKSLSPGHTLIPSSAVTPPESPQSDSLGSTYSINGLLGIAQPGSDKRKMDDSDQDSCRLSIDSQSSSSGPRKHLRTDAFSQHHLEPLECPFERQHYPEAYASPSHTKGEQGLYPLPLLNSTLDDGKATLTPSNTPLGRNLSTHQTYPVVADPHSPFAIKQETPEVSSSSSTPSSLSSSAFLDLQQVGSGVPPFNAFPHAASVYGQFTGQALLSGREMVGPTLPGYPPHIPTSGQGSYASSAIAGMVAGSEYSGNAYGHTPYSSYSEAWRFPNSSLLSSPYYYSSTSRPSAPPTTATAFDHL
# [32] = cytotoxicity in OVCAR8 ovarian cancer cells, dose response, PAX8 project, cell-based, plate reader, dry powder samples (AID 743197); type: functional; conditions: OVCAR-8
# [33] = test system: HEK293; experiment: HEK293T cell cytotoxicity, dose response, cytotoxicity control, ATP luminescence, cherry-pick samples (AID 687005); type: functional, cell-based; conditions: Homo sapiens;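 note: cells exposed to compound for 48 hours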
# [34] = HEK293 Cytotoxicity Assay Measured in Cell-Based System Using Plate Reader - 7071-01_Inhibitor_Dose_CherryPick_Activity_Set2.; type: functional
# [35] = test system: Cryptococcus neoformans; experiment: PubChem AID 686997; type: functional, organism-based
# [36] = target: Metabotropic glutamate receptor 3 (Rattus norvegicus, UniProt P31422); experiment: mGlu3 NAM potency via calcium readout, dose response, mGlu3 NAM project, TREx293 cells, Galpha15, calcium flux (AID 651840); type: functional
# [37] = A Cell-Based Confirmatory Screen for Compounds that Inhibit VEEV, TC-83 (3).; type: functional
# [38] = Late-stage results from the probe development effort to identify antagonists of arginine vasopressin receptor 1a (AVPR1a): fluorescence-based cell-based dose response OXTR inhibition counterscreen assay.; type: functional
# [39] = Late-stage results from the probe development effort to identify antagonists of arginine vasopressin receptor 1a (AVPR1a): fluorescence-based cell-based dose response AVPR1a inhibition assay.; type: functional
# [40] = target: Vasopressin V2 receptor (Homo sapiens, UniProt P30518); experiment: Late-stage results from the probe development effort to identify antagonists of arginine vasopressin receptor 1a (AVPR1a): fluorescence-based cell-based dose response AVPR2 inhibition counterscreen assay.; type: functional
# [41] = target: Vasopressin V1b receptor (Homo sapiens, UniProt P47901); experiment: Late-stage results from the probe development effort to identify antagonists of arginine vasopressin receptor 1a (AVPR1a): fluorescence-based cell-based dose response AVPR1b inhibition counterscreen assay.; type: functional
# [42] = HepG2 cell cytotoxicity, dose response, cytotoxicity control, cherry-picks, set 5 (AID 1053118); type: functional, cell-based
# [43] = HEK293 cell cytotoxicity, dose response, cytotoxicity control, cherry-picks, set 5 (AID 1053117); type: functional, cell-based
# [44] = inhibitors of fibronectin matrix deposition, dose response, AH1F cells, Alexa488-FN fluorescence, cherry-picks (AID 1035475); type: functional, cell-based
# [45] = target: Potassium channel subfamily K member 9 (Homo sapiens, UniProt Q9NPC2); experiment: TASK3 (KCNK9) channel inhibitors, thallium flux, SAR follow-up, selectivity assay for TASK1 inhibitor project, cell-based, FluxOR thallium flux, concentration-response (AID 652211); type: functional;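 note: potency is for inhibitors of the channel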
# Chain of Potassium channel subfamily K member 9 (Q9NPC2 whole entry): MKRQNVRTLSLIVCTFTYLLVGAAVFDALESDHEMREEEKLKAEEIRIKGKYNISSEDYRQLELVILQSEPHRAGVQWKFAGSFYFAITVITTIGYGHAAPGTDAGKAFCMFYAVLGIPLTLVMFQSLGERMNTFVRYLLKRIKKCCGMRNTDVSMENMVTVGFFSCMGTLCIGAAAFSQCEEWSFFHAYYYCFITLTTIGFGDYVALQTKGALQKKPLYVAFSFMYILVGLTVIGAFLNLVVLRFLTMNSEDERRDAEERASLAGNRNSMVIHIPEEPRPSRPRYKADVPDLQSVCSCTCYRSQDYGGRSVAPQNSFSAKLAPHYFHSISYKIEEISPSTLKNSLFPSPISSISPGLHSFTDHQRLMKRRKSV
# Chain of Kallikrein-7 (P49862 whole entry): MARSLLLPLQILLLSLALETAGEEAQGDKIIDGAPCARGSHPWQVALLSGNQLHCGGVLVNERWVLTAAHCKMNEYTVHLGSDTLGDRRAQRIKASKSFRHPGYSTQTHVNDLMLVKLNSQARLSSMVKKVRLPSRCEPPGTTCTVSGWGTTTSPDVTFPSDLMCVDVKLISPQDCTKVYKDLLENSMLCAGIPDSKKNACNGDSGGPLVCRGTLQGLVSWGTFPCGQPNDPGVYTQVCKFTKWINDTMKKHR
structure (smiles),measurement,setting,value
COc1ccc(-c2ccc3nnc(SCC(=O)NCC4CCCO4)n3n2)cc1 (stereo unspecified),EC50,[1],> 69.5 µM (inactive)
Cc1cc(C)c2nc(N3CCN(C(=O)c4ccco4)CC3)sc2c1,IC50,[2],> 67.5 µM (inactive)
same,EC50,[3],> 350 µM (not active)
same,EC50,[4],55.3 µM (active)
same,IC50,[5],> 67.5 µM (inactive)
O=C(CSc1nnc(NC(=O)c2ccccc2[N+](=O)[O-])s1)NCc1ccco1,IC50,[6],> 59.6 µM (inactive)
same,IC50,[7],> 59.6 µM (inactive)
same,IC50,[8],> 59.6 µM (inactive)
CC1CC(=O)NN=C1c1ccc(N(C)C)c([N+](=O)[O-])c1 (stereo unspecified),EC50,[9],0.149 µM (active)
same,EC50,[10],> 112 µM (not active)
same,EC50,[11],> 29.9 µM (inactive)
same,IC50,[12],1.72 µM (active)
C=CCc1c(O)c(CC)cc2c(C)cc(=O)oc12,AC50,[13],0.903 µM (active)
C=CCn1c(CCNC(=O)c2cccs2)nnc1SCC(=O)c1ccc(Cl)cc1,EC50,[14],0.00153 µM (active)
same,EC50,[15],0.167 µM (active)
CN1C(=O)CSc2ccc(NC(=O)Nc3ccccn3)cc21,IC50,[16],49 µM (inactive)
same,EC50,[17],> 29.9 µM (inactive)
same,EC50,[18],> 29.9 µM (inactive)
same,IC50,[19],> 29.9 µM (inactive)
same,IC50,[20],5.8 µM (active)
COc1ccc(NC(=O)c2ccc(OC(=S)N(C)c3ccc(OC)cc3)cc2)cc1,IC50,[21],> 80 µM (inactive)
O=C(/C=C/c1ccccc1)N1CCC(c2ccccc2)C1 (stereo unspecified),EC50,[22],> 67.5 µM (inactive)
Cc1c(N2C(=O)c3cccc4cccc(c34)C2=O)c(=O)n(-c2ccccc2)n1C,IC50,[23],> 122 µM (inactive)
same,IC50,[24],> 122 µM (inactive)
Cc1cc2cc(CNC(=O)c3ccco3)ccc2n1C,IC50,[25],73.3 µM (inactive)
same,AC50,[26],> 52 µM (inactive)
CN(CC(=O)N1CCN(c2ccccn2)CC1)S(=O)(=O)c1ccc(Cl)cc1,EC50,[27],0.357 µM (active)
same,EC50,[15],0.0396 µM (active)
O=C(Nc1ccc2c(c1)OCO2)c1cc(C2CCCCN2C(=O)OCCF)on1 (stereo unspecified),AC50,[28],31.8 µM (active)
C[C@@H]1CCCCO[C@H](CN(C)C(=O)c2ccccc2)[C@H](C)CN([C@@H](C)CO)C(=O)c2cc(NC(=O)Nc3ccc(C(F)(F)F)cc3)ccc2O1,AC50,[29],64.1 µM (active)
same,AC50,[30],19.9 µM (active)
same,AC50,[31],6.57 µM (active)
same,AC50,[32],34.4 µM (active)
COC(=O)C1=C(C)N(Cc2ccc(Br)cc2)C(=S)NC1c1ccccc1 (stereo unspecified),AC50,[33],19.8 µM (active)
same,AC50,[34],19.8 µM (active)
same,AC50,[35],18.8 µM (active)
COc1ccc(C#Cc2ccc(C(=O)N3CC4CCC(=O)C4C3)cc2)cc1 (stereo unspecified),IC50,[36],2.05 µM
CN(C(=O)Cc1cccs1)c1nc2c(s1)CCCC2,IC50,[37],2.92 µM (active)
N#Cc1ccc(N2CCC(C(=O)N(CC3CC3)c3ccc(Cl)cc3)CC2)nc1,IC50,[38],20.1 µM (inactive)
same,IC50,[39],0.8 µM (active)
same,IC50,[40],30.2 µM (inactive)
same,IC50,[41],25.7 µM (inactive)
CO[C@H]1CN(C)C(=O)c2ccc(NC(=O)Nc3cc(Cl)cc(Cl)c3)cc2OC[C@H](C)NC[C@@H]1C,AC50,[42],30.9 µM (active)
same,AC50,[43],41.1 µM (active)
Cc1ccc(S(=O)(=O)N2CC[C@@H]3[C@H]2c2cc(-c4cccc(C(=O)N(C)C)c4)ccc2N[C@@H]3CO)cc1,AC50,[44],4.45 µM (active)
COc1ccccc1C(=O)Nc1cccc(NC(=O)c2ccccc2)c1,IC50,[45],1.74 µM (active)
